pIC50: −log10 of the molar value.

The assay deals with T1, mouse ENT-1 transporter (Mus musculus, UniProt Q9JIM1).
T1 construct: expressed in transfected cells
T1 sequence (Q9JIM1 1-460): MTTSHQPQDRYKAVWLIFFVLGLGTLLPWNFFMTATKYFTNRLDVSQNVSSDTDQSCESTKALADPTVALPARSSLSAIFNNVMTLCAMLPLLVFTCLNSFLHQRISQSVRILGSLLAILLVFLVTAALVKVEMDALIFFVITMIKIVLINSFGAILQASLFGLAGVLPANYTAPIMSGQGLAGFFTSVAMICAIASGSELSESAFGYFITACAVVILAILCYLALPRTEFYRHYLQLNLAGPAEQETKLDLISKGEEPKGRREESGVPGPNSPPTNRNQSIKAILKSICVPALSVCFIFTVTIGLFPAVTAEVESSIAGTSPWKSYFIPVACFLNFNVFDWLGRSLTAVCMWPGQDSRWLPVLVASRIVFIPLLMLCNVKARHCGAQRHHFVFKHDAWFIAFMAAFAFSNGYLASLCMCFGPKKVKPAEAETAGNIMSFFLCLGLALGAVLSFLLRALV
In words: Adenosine transport activity (ENT1, [3H]-adenosine uptake). Format: cell-based. Conditions: stable cells expressing mouse ENT-1; [2,8-3H]-adenosine 6 nM, 20 min. On the procedure: To measure adenosine transport activity of ENT-1 mammalian cells, stable cells expressing the mouse ENT-1 transporter were plated on day 1 in 96-well culture plates at the density of 60,000 cells/well, in complete DMEM/F12 medium supplemented with glutamax, 10% FBS and 10 μg/ml puromycin. On day 2, the medium was aspirated and the cells were washed twice with uptake buffer (10 mM Hepes-Tris, pH 7.4 containing 150 mM NaCl, 1 mM CaCl2, 2.5 mM KCl, 2.5 mM MgSO4, 10 mM D-glucose) (UB). For inhibition experiments, cells were then incubated at RT with various concentrations of compounds with 1% DMSO final. Non-specific uptake was defined in the presence of 10 μM S-(4-Nitrobenzyl)-6-thioinosine (NBTI, Sigma Cat #N2255).
A solution containing [2,8-^3H]-adenosine 6 nM (40 Ci/mmol, American Radiolabeled chemicals Inc, Cat #ART 0287A) was then immediately added to the wells. The plates were then incubated for 20 min with gentle shaking and the reaction was stopped by aspiration of the mixture and washing (three times) with ice-cold UB. The cells were lysed by the addition of scintillation liquid, shaken 3 hours and the radioactivity in the cells was estimated using a microplates scintillation counter (TopCount NXT, Packard).
By pIC50 is commonly meant −log10 of the IC50, conventionally taken in molar units. High values mean a small IC50, low ones a large IC50. In turn, “5-(3,3-Dimethyl-6-(2-methylpyrimidin-5-yl)-2-oxoindolin-1-yl)-N,2-dimethylnicotinamide [Example 41]” showed a pIC50 of 6.38.
With `Cc1ncc(-c2ccc3c(c2)N(c2cncc(C(=O)N(C)C)n2)C(=O)C3(C)C)cn1` [Example 1, 6-(3,3-Dimethyl-6-(2-methylpyrimidin-5-yl)-2-oxoindolin-1-yl)-N,N-dimethylpyrazine-2-carboxamide] the figure was 7.71; with `Cc1ncc(-c2ccc3c(c2)N(c2cncc(C(=O)N4CCC4)n2)C(=O)C3(C)C)cn1` [Example 3, 1-(6-(Azetidine-1-carbonyl)pyrazin-2-yl)-3,3-dimethyl-6-(2-methylpyrimidin-5-yl)indolin-2-one], 7.50.
With `Cc1ncc(-c2ccc3c(c2)N(c2cncc(C(=O)N(C)CC(F)(F)F)n2)C(=O)C3(C)C)cn1` [Example 4, 6-(3,3-Dimethyl-6-(2-methylpyrimidin-5-yl)-2-oxoindolin-1-yl)-N-methyl-N-(2,2,2-trifluoroethyl)pyrazine-2-carboxamide] the figure was 6.29.
Next, `COCCN(C)C(=O)c1cncc(N2C(=O)C(C)(C)c3ccc(-c4cnc(C)nc4)cc32)n1` [Example 5, 6-(3,3-Dimethyl-6-(2-methylpyrimidin-5-yl)-2-oxoindolin-1-yl)-N-(2-methoxyethyl)-N-methylpyrazine-2-carboxamide]: 6.42; `Cc1ncc(-c2ccc3c(c2)N(c2cncc(C(=O)NCCO)n2)C(=O)C3(C)C)cn1` [Example 6, 6-(3,3-Dimethyl-6-(2-methylpyrimidin-5-yl)-2-oxoindolin-1-yl)-N-(2-hydroxyethyl)pyrazine-2-carboxamide]: 7.52.
On to `Cc1ncc(-c2ccc3c(c2)N(c2cncc(C(=O)NCC(F)(F)F)n2)C(=O)C3(C)C)cn1` [Example 8, 6-(3,3-Dimethyl-6-(2-methylpyrimidin-5-yl)-2-oxoindolin-1-yl)-N-(2,2,2-trifluoroethyl)pyrazine-2-carboxamide], for which the pIC50 was 6.35.
In turn, `Cc1ncc(-c2ccc3c(c2)N(c2cncc(C(=O)NC(C)C)n2)C(=O)C3(C)C)cn1` [Example 9, 6-(3,3-Dimethyl-6-(2-methylpyrimidin-5-yl)-2-oxoindolin-1-yl)-N-isopropylpyrazine-2-carboxamide] gave a pIC50 of 6.71.
Turning to `Cc1ncc(-c2ccc3c(c2)N(c2cncc(C(N)=O)n2)C(=O)C3(C)C)cn1` [Example 10, 6-(3,3-Dimethyl-6-(2-methylpyrimidin-5-yl)-2-oxoindolin-1-yl)pyrazine-2-carboxamide], the pIC50 is 6.71.
With `Cc1ncc(-c2ccc3c(c2)N(c2cnc(C(=O)N(C)C(C)(C)C)cn2)C(=O)C3(C)C)cn1` [Example 12, N-(tert-Butyl)-5-(3,3-dimethyl-6-(2-methylpyrimidin-5-yl)-2-oxoindolin-1-yl)-N-methylpyrazine-2-carboxamide] the figure was 6.03; with `Cc1ncc(-c2ccc3c(c2)N(c2cnc(C(=O)N4CCC4)cn2)C(=O)C3(C)C)cn1` [Example 13, 1-(5-(Azetidine-1-carbonyl)pyrazin-2-yl)-3,3-dimethyl-6-(2-methylpyrimidin-5-yl)indolin-2-one], 6.12.
Molecule `COCCN(C)C(=O)c1cnc(N2C(=O)C(C)(C)c3ccc(-c4cnc(C)nc4)cc32)cn1` [Example 14, 5-(3,3-Dimethyl-6-(2-methylpyrimidin-5-yl)-2-oxoindolin-1-yl)-N-(2-methoxyethyl)-N-methylpyrazine-2-carboxamide] gave a pIC50 of 6.73.
Next, `Cc1ncc(-c2ccc3c(c2)N(c2cnc(C(N)=O)cn2)C(=O)C3(C)C)cn1` [Example 15, 5-(3,3-Dimethyl-6-(2-methylpyrimidin-5-yl)-2-oxoindolin-1-yl)pyrazine-2-carboxamide]: 6.41; `Cc1ncc(-c2ccc3c(c2)N(c2nccc(C(=O)N(C)C)n2)C(=O)C3(C)C)cn1` [Example 17, 2-(3,3-Dimethyl-6-(2-methylpyrimidin-5-yl)-2-oxoindolin-1-yl)-N,N-dimethylpyrimidine-4-carboxamide]: 6.27; `CNC(=O)c1nc(N2C(=O)C(C)(C)c3ccc(-c4cnc(C)nc4)cc32)ncc1C` [Example 18, 2-(3,3-Dimethyl-6-(2-methylpyrimidin-5-yl)-2-oxoindolin-1-yl)-N,5-dimethylpyrimidine-4-carboxamide]: 7.11.
With `Cc1ncc(-c2ccc3c(c2)N(c2ccnc(C(=O)N(C)C)n2)C(=O)C3(C)C)cn1` [Example 19, 4-(3,3-Dimethyl-6-(2-methylpyrimidin-5-yl)-2-oxoindolin-1-yl)-N,N-dimethylpyrimidine-2-carboxamide] the figure was 6.14; with `CNC(=O)c1nccc(N2C(=O)C(C)(C)c3ccc(-c4cnc(C)nc4)cc32)n1` [Example 20, 4-(3,3-Dimethyl-6-(2-methylpyrimidin-5-yl)-2-oxoindolin-1-yl)-N-methylpyrimidine-2-carboxamide], 6.92; with `Cc1ncc(-c2ccc3c(c2)N(c2ccc(C(=O)N(C)C)nn2)C(=O)C3(C)C)cn1` [Example 21, 6-(3,3-Dimethyl-6-(2-methylpyrimidin-5-yl)-2-oxoindolin-1-yl)-N,N-dimethylpyridazine-3-carboxamide], 6.02.
Turning to `Cc1ncc(-c2ccc3c(c2)N(c2cccc(C(=O)N(C)C)n2)C(=O)C3(C)C)cn1` [Example 23, 6-(3,3-Dimethyl-6-(2-methylpyrimidin-5-yl)-2-oxoindolin-1-yl)-N,N-dimethylpicolinamide], the pIC50 was 6.43.
With `Cc1ncc(-c2ccc3c(c2)N(c2cccc(C(=O)NCC4CC4)n2)C(=O)C3(C)C)cn1` [Example 25, N-(Cyclopropylmethyl)-6-(3,3-dimethyl-6-(2-methylpyrimidin-5-yl)-2-oxoindolin-1-yl)picolinamide] the figure was 7.30.
With `Cc1ncc(-c2ccc3c(c2)N(c2cccc(C(N)=O)n2)C(=O)C3(C)C)cn1` [Example 26, 6-(3,3-Dimethyl-6-(2-methylpyrimidin-5-yl)-2-oxoindolin-1-yl)picolinamide] the figure was 6.60; with `CNC(=O)c1nc(N2C(=O)C(C)(C)c3ccc(-c4cnc(C)nc4)cc32)ccc1C` [Example 27, 6-(3,3-Dimethyl-6-(2-methylpyrimidin-5-yl)-2-oxoindolin-1-yl)-N,3-dimethylpicolinamide], 7.83; with `Cc1ncc(-c2ccc3c(c2)N(c2ccc(C)c(C(=O)N(C)C)n2)C(=O)C3(C)C)cn1` [Example 28, 6-(3,3-Dimethyl-6-(2-methylpyrimidin-5-yl)-2-oxoindolin-1-yl)-N,N,3-trimethylpicolinamide], 6.46.
With `Cc1ncc(-c2ccc3c(c2)N(c2cncc(C(=O)N(C)C)c2)C(=O)C3(C)C)cn1` [Example 30, 5-(3,3-Dimethyl-6-(2-methylpyrimidin-5-yl)-2-oxoindolin-1-yl)-N,N-dimethylnicotinamide] the figure was 6.22.
`Cc1ncc(-c2ccc3c(c2)N(c2cncc(C(=O)N4CCC4)c2)C(=O)C3(C)C)cn1` [Example 31, 1-(5-(Azetidine-1-carbonyl)pyridin-3-yl)-3,3-dimethyl-6-(2-methylpyrimidin-5-yl)indolin-2-one] had a negative-log IC50 (pIC50) of 6.69.
`Cc1ncc(-c2ccc3c(c2)N(c2cncc(C(=O)NCC(F)(F)F)c2)C(=O)C3(C)C)cn1` [Example 32, 5-(3,3-Dimethyl-6-(2-methylpyrimidin-5-yl)-2-oxoindolin-1-yl)-N-(2,2,2-trifluoroethyl)nicotinamide] gave a pIC50 of 6.32.
On to `CNC(=O)c1cncc(N2C(=O)C(C)(C)c3ccc(-c4cnc(C)nc4)cc32)c1` [Example 33, 5-(3,3-Dimethyl-6-(2-methylpyrimidin-5-yl)-2-oxoindolin-1-yl)-N-methylnicotinamide], for which the pIC50 was 6.25.
With `CNC(=O)c1cc(N2C(=O)C(C)(C)c3ccc(-c4cnc(C)nc4)cc32)cc(C)n1` [Example 34, 4-(3,3-Dimethyl-6-(2-methylpyrimidin-5-yl)-2-oxoindolin-1-yl)-N,6-dimethylpicolinamide] the figure was 5.94; with `CNC(=O)c1cc(N2C(=O)C(C)(C)c3ccc(-c4cnc(C)nc4)cc32)ccn1` [Example 35, 4-(3,3-Dimethyl-6-(2-methylpyrimidin-5-yl)-2-oxoindolin-1-yl)-N-methylpicolinamide], 6.27; with `Cc1ncc(-c2ccc3c(c2)N(c2cnc4c(c2)C(=O)N(C)C4)C(=O)C3(C)C)cn1` [Example 36, 3-(3,3-Dimethyl-6-(2-methylpyrimidin-5-yl)-2-oxoindolin-1-yl)-6-methyl-6,7-dihydro-5H-pyrrolo[3,4-b]pyridin-5-one], 6.20.

The values are drawn from patent US11066393B2, “Indolin-2-one derivatives” (Hoffmann-La Roche Inc., priority 2015, dated 2021).
